Reference: patent US20240246934A1, “QUINAZOLINE-BASED COMPOUND, COMPOSITION, AND APPLICATION OF QUINAZOLINE-BASED COMPOUND” (BEIJING SCITECH-MQ PHARMACEUTICALS LIMITED, priority 2021, published 2024)

Key:
[1] = target: Ba/F3 HER2 A775_G776insYVMA cells (Homo sapiens, UniProt P04626, DUP772-775, cells depend on it); test: Inhibition of cell proliferation, CTG method, Ba/F3 HER2 A775_G776insYVMA; type: cell-based; settings: 72 hours, read-out: Ba/F3 HER2 A775-G776insYVMA IC50
Excerpt: The present application examined the in vitro anti-proliferative activity of the compounds of the present disclosure against in vitro cultured BT474, NCI-N87, Ba/F3-EGFR-VIII and Ba/F3 HER2 A775_G776insYVMA and Ba/F3 EGFR D770_N771insSVD cell lines by CTG method.
Cell lines: BT474 (from the cell bank of Chinese Academy of Sciences), NCI-N87 (from ATCC), Ba/F3-EGFR-VIII, Ba/F3 HER2 A775_G776insYVMA and Ba/F3 EGFR D770_N771insSVD (all from KYinno Biotechnology (Beijing) Co., Ltd.); all of the above cells were cultured with RPMI1640 medium containing 10% fetal bovine serum, 100 U/mL penicillin, and 100 μg/mL streptomycin in the culture process.
1. The assay compound was dissolved with DMSO to form a stock solution and a gradient dilution was performed, followed by dilution with the corresponding medium to obtain a solution with 5-fold working concentration.
2. Cells in logarithmic growth phase were adjusted to specific cell densities by dilution with culture medium, and 80 μL of cell suspension was added to a 96-well plate, such that plating densities of cells of BT474, NCI-N87, Ba/F3-EGFR-VIII, Ba/F3 HER2 A775_G776insYVMA and Ba/F3 EGFR D770_N771insSVD were all 3000 cells/well. The cells of Ba/F3-EGFR-VIII, Ba/F3 HER2 A775_G776insYVMA and Ba/F3 EGFR D770_N771insSVD were used directly in the next step (treatment with compound), whereas the BT474 and NCI-N87 needed to be cultured overnight in a 37° C., 5% carbon dioxide gas incubator to adhere to the wall, and then treated with compounds.
3. […] The highest concentration of the assayed compound was 10 μM, 4-fold serial dilution, a total of 9 concentrations, and duplicate wells. A control group without compound was also set up.
4. The cells were cultured for another 72 hours, and then cell viability was detected by CTG assay kit. Signal values were read with a multifunctional plate reader (Perkin Elmer). GraphPad Prism software was used to create a dose-response curve and IC50 was calculated.

EGFR^WT kinase = EGFR^WT kinase (Homo sapiens, UniProt P00533); test: EGFR^WT kinase assay (ULight/PT66 TR-FRET); type: biochemical
Procedure: (§1) Preparation of compound solution: The assay compound was dissolved in DMSO to form a 10 mM stock solution. Prior to use, the compound was diluted to 0.25 mM in DMSO (100 times the final concentration of the diluent) and then subjected to a 3-fold concentration gradient dilution to obtain a total of 11 concentrations. The solution was diluted with buffer to a diluent with 4× the final concentration when the compound was added.
(§2) EGFR^WT kinase assay: buffer was prepared, and 3.48 nM 4×EGFR kinase solution, 600 μM 4×ATP solution, and 400 nM 4×ULight™-labeled JAK-1 (Try1023) Peptide substrate solution were prepared using the buffer. After the preparation was completed, the enzyme was mixed with different concentrations of compounds pre-prepared by dilution, and the mixture was left to stand at room temperature for 5 min. Each concentration was performed in duplicate. The corresponding substrate and ATP were added and the mixture was reacted at room temperature for 120 minutes (with negative and positive controls). After completion of the reaction, PT66 detection antibody was added. The mixture was incubated at room temperature for 60 minutes, and then detected by Envision.
(§3) Compound concentrations and corresponding inhibition rates were input into GraphPad Prism for processing to calculate IC50 values.

HER2 kinase = target: T1, HER2 kinase (Homo sapiens, UniProt P04626); test: HER2 kinase assay (ULight/PT66 TR-FRET); type: biochemical
T1 construct: purchased Carna Biosciences 08-016
Procedure: as §1
as §2, with “HER2” for “EGFR^WT”, “40” for “3.48”, “4×Her2” for “4×EGFR”, “40” for “600”, “Ploy GT” for “JAK-1 (Try1023)”
as §3

T1 sequence (P04626 23-1255): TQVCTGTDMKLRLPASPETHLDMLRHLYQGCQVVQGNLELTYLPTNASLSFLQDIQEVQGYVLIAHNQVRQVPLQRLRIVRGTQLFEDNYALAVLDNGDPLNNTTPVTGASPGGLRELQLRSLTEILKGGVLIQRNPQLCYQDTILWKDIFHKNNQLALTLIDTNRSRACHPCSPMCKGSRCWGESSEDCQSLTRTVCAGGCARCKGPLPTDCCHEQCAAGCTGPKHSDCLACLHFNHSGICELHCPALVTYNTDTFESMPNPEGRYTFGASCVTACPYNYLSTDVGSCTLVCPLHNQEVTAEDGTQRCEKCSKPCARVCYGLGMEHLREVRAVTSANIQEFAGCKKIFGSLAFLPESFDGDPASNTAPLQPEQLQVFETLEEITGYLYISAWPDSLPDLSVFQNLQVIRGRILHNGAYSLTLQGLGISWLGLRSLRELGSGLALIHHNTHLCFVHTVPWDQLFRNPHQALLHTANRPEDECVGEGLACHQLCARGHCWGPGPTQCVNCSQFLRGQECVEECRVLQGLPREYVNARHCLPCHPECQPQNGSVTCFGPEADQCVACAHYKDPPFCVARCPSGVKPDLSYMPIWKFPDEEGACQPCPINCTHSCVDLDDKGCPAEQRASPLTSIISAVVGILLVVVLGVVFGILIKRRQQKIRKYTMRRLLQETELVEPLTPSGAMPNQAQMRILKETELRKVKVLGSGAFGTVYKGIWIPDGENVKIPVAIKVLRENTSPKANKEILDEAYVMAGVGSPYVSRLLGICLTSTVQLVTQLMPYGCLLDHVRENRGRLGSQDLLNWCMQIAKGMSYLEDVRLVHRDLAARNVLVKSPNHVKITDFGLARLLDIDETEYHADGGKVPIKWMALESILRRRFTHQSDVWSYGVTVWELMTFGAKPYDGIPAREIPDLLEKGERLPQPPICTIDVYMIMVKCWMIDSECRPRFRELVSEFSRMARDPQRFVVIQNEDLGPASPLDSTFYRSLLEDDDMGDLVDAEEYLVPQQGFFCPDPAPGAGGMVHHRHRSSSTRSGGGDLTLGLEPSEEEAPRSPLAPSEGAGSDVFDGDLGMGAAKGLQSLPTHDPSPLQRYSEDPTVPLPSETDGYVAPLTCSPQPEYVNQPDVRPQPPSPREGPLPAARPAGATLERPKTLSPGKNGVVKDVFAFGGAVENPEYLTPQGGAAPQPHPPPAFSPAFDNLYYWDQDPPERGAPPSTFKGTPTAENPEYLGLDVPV
Chain of Ba/F3 HER2 A775_G776insYVMA cells (P04626 with tags, fused parts or gaps DUP772-775): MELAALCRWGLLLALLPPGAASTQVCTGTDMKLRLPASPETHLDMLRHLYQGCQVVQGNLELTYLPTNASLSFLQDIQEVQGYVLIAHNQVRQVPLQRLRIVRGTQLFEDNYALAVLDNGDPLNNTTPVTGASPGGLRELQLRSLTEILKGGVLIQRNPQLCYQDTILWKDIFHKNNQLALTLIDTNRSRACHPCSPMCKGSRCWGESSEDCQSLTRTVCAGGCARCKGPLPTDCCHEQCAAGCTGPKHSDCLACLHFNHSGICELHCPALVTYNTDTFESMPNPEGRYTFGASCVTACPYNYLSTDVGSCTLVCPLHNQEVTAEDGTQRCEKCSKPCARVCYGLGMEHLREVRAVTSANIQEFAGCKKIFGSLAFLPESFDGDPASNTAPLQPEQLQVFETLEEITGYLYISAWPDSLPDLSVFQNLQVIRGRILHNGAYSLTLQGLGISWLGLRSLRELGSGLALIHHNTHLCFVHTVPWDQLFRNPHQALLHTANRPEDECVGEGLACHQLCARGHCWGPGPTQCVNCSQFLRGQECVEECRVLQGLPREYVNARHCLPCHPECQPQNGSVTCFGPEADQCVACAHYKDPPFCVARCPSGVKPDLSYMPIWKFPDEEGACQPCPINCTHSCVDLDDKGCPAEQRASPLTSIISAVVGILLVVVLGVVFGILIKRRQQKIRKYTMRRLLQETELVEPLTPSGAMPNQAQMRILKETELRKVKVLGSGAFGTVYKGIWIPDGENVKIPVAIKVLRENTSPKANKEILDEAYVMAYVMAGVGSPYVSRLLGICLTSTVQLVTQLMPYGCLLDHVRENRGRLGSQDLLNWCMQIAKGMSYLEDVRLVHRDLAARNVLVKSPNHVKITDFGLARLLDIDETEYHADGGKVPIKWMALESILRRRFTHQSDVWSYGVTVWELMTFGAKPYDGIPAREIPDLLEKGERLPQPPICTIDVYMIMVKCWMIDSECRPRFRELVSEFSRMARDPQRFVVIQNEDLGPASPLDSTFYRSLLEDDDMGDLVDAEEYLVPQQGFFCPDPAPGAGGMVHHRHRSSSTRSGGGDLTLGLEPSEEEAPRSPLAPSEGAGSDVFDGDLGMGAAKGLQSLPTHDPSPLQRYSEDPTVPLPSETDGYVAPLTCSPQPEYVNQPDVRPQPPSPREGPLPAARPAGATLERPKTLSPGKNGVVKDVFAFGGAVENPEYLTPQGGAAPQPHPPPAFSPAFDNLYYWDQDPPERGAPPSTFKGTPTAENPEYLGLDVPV
Chain of EGFR^WT kinase (P00533 25-1210): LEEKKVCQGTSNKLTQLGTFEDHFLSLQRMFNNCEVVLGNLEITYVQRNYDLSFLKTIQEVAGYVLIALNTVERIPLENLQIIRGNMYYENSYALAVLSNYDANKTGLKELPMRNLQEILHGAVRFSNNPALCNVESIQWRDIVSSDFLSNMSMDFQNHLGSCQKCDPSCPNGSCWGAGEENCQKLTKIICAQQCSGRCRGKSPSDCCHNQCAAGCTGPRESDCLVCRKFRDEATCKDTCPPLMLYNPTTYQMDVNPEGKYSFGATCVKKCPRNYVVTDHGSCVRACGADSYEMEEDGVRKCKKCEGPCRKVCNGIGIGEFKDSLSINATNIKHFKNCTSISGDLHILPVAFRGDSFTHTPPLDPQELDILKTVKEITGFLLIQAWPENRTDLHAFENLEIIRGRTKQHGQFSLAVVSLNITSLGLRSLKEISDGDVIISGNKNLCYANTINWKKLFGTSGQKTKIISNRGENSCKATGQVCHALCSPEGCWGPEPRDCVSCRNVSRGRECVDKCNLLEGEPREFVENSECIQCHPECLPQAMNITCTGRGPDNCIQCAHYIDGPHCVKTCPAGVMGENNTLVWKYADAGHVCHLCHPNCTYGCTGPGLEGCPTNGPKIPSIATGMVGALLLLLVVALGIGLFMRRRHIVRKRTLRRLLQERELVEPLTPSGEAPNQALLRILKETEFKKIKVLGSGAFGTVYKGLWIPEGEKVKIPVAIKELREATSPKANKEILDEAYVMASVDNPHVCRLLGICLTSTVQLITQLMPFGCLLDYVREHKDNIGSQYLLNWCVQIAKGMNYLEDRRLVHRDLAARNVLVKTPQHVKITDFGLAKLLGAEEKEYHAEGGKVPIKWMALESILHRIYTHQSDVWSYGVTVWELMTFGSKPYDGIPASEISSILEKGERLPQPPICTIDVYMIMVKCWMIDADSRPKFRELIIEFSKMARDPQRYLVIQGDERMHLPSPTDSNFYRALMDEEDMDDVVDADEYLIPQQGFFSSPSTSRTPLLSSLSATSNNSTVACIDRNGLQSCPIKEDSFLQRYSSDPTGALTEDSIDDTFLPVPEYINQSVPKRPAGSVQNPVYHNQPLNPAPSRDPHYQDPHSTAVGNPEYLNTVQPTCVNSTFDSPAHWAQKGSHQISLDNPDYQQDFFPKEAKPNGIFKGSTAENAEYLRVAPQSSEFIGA

| Compound | GI50 [1] | IC50 (EGFR^WT kinase) | IC50 (HER2 kinase) |
| --- | --- | --- | --- |
| [2H]C([2H])([2H])Oc1c(NC(=O)/C=C/CN(C)C)ccc2ncnc(Nc3ccc(OCc4ccccn4)c(Cl)c3)c12 [Example 36, (E)-N-(4-((3-chloro-4-(pyridin-2-ylmethoxy)phenyl)amino)-5-(methoxy-d3)quinazolin-6-yl)-4-(dimethylamino)but-2-enamide] | 1 to 5 nM | < 10 nM | < 10 nM |
| COc1c(NC(=O)/C=C/[C@H]2CCCN2C)ccc2ncnc(Nc3ccc(OCc4ccccn4)c(F)c3)c12 [Example 30, (R,E)-N-(4-((3-fluoro-4-(pyridin-2-ylmethoxy)phenyl)amino)-5-methoxyquinazolin-6-yl)-3-(1-methylpyrrolidin-2-yl)acrylamide] | 1 to 5 nM | < 10 nM | < 10 nM |
| CN1CCC[C@@H]1/C=C/C(=O)Nc1ccc2ncnc(Nc3ccc(OCc4ccccn4)c(Cl)c3)c2c1OCCC(C)(C)O [Example 16, (R,E)-N-(4-((3-chloro-4-(pyridin-2-ylmethoxy)phenyl)amino)-5-(3-hydroxy-3-methylbutoxy)quinazolin-6-yl)-3-(1-methylpyrrolidin-2-yl)acrylamide] | 1 to 5 nM | < 10 nM | < 10 nM |
| CCOc1c(NC(=O)/C=C/[C@H]2CCCN2C)ccc2ncnc(Nc3ccc(OCc4cccc(C)n4)c(Cl)c3)c12 [Example 22, (R,E)-N-(4-((3-chloro-4-((6-methylpyridin-2-yl)methoxy)phenyl)amino)-5-ethoxyquinazolin-6-yl)-3-(1-methylpyrrolidin-2-yl)acrylamide] | 1 to 5 nM | < 10 nM | < 10 nM |
| CCOc1c(NC(=O)/C=C/[C@H]2CCCN2C)ccc2ncnc(Nc3ccc(OCc4ccccn4)c(F)c3)c12 [Example 21, (R,E)-N-(5-ethoxy-4-((3-fluoro-4-(pyridin-2-ylmethoxy)phenyl)amino)quinazolin-6-yl)-3-(1-methylpyrrolidine-2-yl)acrylamide] | 1 to 5 nM | < 10 nM | < 10 nM |
| [2H]C([2H])([2H])Oc1c(NC(=O)/C=C/[C@H]2CCCN2C(C)C)ccc2ncnc(Nc3ccc(OCc4ccccn4)c(Cl)c3)c12 [Example 35, (R,E)-N-(4-((3-chloro-4-(pyridin-2-ylmethoxy)phenyl)amino)-5-(methoxy-d3)quinazolin-6-yl)-3-(1-isopropylpyrrolidin-2-yl)acrylamide] | 1 to 5 nM | 10 to 100 nM | < 10 nM |
| COCCN1CCC[C@@H]1/C=C/C(=O)Nc1ccc2ncnc(Nc3ccc(OCc4ccccn4)c(Cl)c3)c2c1OC [Example 25, (R,E)-N-(4-((3-chloro-4-(pyridin-2-ylmethoxy)phenyl)amino)-5-methoxyquinazolin-6-yl)-3-(1-(2-methoxyethyl)pyrrolidin-2-yl)acrylamide] | 1 to 5 nM | 100 to 1000 nM | < 10 nM |
| [2H]C([2H])([2H])Oc1c(NC(=O)/C=C/[C@H]2CCCN2CC)ccc2ncnc(Nc3ccc(OCc4ccccn4)c(Cl)c3)c12 [Example 34, (R,E)-N-(4-((3-chloro-4-(pyridin-2-ylmethoxy)phenyl)amino)-5-(methoxy-d3)quinazolin-6-yl)-3-(1-ethylpyrrolidin-2-yl)acrylamide] | 1 to 5 nM | < 10 nM | < 10 nM |
| COCCCNc1c(NC(=O)/C=C/[C@H]2CCCN2C)ccc2ncnc(Nc3ccc(OCc4ccccn4)c(Cl)c3)c12 [Example 32, (R,E)-N-(4-((3-chloro-4-(pyridin-2-ylmethoxy)phenyl)amino)-5-((3-methoxypropyl)amino)quinazolin-6-yl)-3-(1-methylpyrrolidin-2-yl)acrylamide] | 1 to 5 nM | 100 to 1000 nM | < 10 nM |
| CN1CCC[C@@H]1/C=C/C(=O)Nc1ccc2ncnc(Nc3ccc(Oc4ccccc4)cc3)c2c1OCCO [Example 31, (R,E)-N-(5-(2-hydroxyethoxy)-4-((4-phenyloxyphenyl)amino)quinazolin-6-yl)-3-(1-methylpyrrolidin-2-yl)acrylamide] | 1 to 5 nM | < 10 nM | < 10 nM |
| COc1c(NC(=O)/C=C/[C@H]2CCCN2C(C)C)ccc2ncnc(Nc3ccc(OCc4cccc(F)c4)c(Cl)c3)c12 [Example 18, (R,E)-N-(4-((3-chloro-4-(3-fluorobenzyloxy)phenyl)amino)-5-methoxyquinazolin-6-yl)-3-(1-isopropylpyrrolidine-2-yl)acrylamide] | 1 to 5 nM | < 10 nM | < 10 nM |
| CN1CCC[C@@H]1/C=C/C(=O)Nc1ccc2ncnc(Nc3ccc(OCc4ccccn4)c(Cl)c3)c2c1OCCC(F)(F)F [Example 12, (R,E)-N-(4-((3-chloro-4-(pyridin-2-ylmethoxy)phenyl)amino)-5-(3,3,3-trifluoropropoxy)quinazolin-6-yl)-3-(1-methylpyrrolidin-2-yl)acrylamide] | 1 to 5 nM | < 10 nM | < 10 nM |
